Data reported in the supplement of paper PMC11208160.

Experiment: recombinant barcode read abundance after kanamycin selection (control-corrected) (log10(CPM+1)); higher = more efficient recombination; sequences stand for … in AGTGCAGAGAAAATCGGCCAGTTTTCTCTGCCTGCAGTCCGCATGCCGT…AGATTTATGCAGCGGACTGCCTTTCTCCCAAAGTGATAAACCGGACAGTATCATGGACCGGTTTTCCCGGTAATCCGTATTTGCAAGGTTGGTTTCACT; site = the 11-nt target
Method: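 Pooled E. coli target-specificity screen for the IS621 bridge recombinase. Each library plasmid pairs an 11-nt target (CT core) with a bridge RNA whose target-binding loop (9-nt LTG + 4-nt RTG) is reprogrammed; the rest of the 177-nt WT IS621 bridge RNA scaffold is fixed. The plasmid is co-electroporated with a WT donor plasmid; recombinase is induced with 0.1 mM IPTG and recombinants are selected on kanamycin. Recombinant barcodes are sequenced, converted to CPM, averaged over two biological replicates and corrected by the unselected control CPM. Molecule = full bridge RNA written as DNA: LTG = specificity nt 1-9, RTG = reverse complement of specificity nt 8-11, in the WT scaffold.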
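Also: IS621 recombinase and bridge RNA in Escherichia coli cells.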

| Sequence | recombinant barcode read abundance (log10) |
| --- | --- |
| AAACCACCTTGGGTTCTAACCTGTTGCCT (site AAACCACCTAG) | 1.49 |
| AAACCACCTTGGGTTCTAACCTGTTGCCT (site ACACCACCTAG) | 0.257 |
| AAACCACCTTGGGTTCTAACCTGTTGCCT (site AGACCACCTAG) | 0.276 |
| AAACCACCTTGGGTTCTAACCTGTTGCCT (site ATACCACCTAG) | 0.861 |
| AAATCCTCTTGGGTTCTAACCTGTTGCCT (site AAATCCTCTAG) | 1.04 |
| AAATCCTCTTGGGTTCTAACCTGTTGCCT (site CAATCCTCTAG) | 0.475 |
| AAATCCTCTTGGGTTCTAACCTGTTGCCT (site GAATCCTCTAG) | 0.085 |
| AAATCCTCTTGGGTTCTAACCTGTTGCCT (site TAATCCTCTAG) | 0.409 |
| AAATGACCTTGGGTTCTAACCTGTTGCGT (site AAATGACCTAC) | 2.66 |
| AAATGACCTTGGGTTCTAACCTGTTGCGT (site GTGCCCGCTCT) | 0.548 |
| AAATTGACTTGGGTTCTAACCTGTTGCCT (site AAATTGACTAG) | 0.624 |
| AAATTGACTTGGGTTCTAACCTGTTGCCT (site AACTTGACTAG) | 0.136 |
| AAATTGACTTGGGTTCTAACCTGTTGCCT (site AAGTTGACTAG) | 0.0999 |
| AAATTGACTTGGGTTCTAACCTGTTGCCT (site AATTTGACTAG) | 0.0913 |
| AAATTTCCTTGGGTTCTAACCTGTTGCCT (site AAATTTCCTAG) | 0.42 |
| AAATTTCCTTGGGTTCTAACCTGTTGCCT (site ACATTTCCTAG) | 0.0879 |
| AAATTTCCTTGGGTTCTAACCTGTTGCCT (site AGATTTCCTAG) | 0.0553 |
| AAATTTCCTTGGGTTCTAACCTGTTGCCT (site ATATTTCCTAG) | 0.123 |
| AACACGTCTTGGGTTCTAACCTGTTGCCT (site AAATCGTCTAG) | 0.0544 |
| AACACGTCTTGGGTTCTAACCTGTTGCCT (site AACACGTCTAG) | 0.576 |
| AACACTCCTTGGGTTCTAACCTGTTGCTT (site AACACTCCTAA) | 0.0689 |

| Sequence | recombinant barcode read abundance (log10) |
| --- | --- |
| AACACTCCTTGGGTTCTAACCTGTTGCTT (site AAGACTCCTAA) | 0.299 |
| AACAGTTCTTGGGTTCTAACCTGTTGCCT (site AACAGCTCTAG) | 0.151 |
| AACAGTTCTTGGGTTCTAACCTGTTGCCT (site AACAGTTCTAG) | 0.749 |
| AACCGCCCTTGGGTTCTAACCTGTTGCGT (site AACCGCCCTAC) | 2.47 |
| AACCGCCCTTGGGTTCTAACCTGTTGCGT (site AACCGCCCTAG) | 0.434 |
| AACCTAGCTTGGGTTCTAACCTGTTGCTA (site AACCTAGCTTA) | 0.395 |
| AACCTAGCTTGGGTTCTAACCTGTTGCTA (site ACCCTAGCTGA) | 0.0657 |
| AACGCTTCTTGGGTTCTAACCTGTTGCCT (site AACGCTTCTAG) | 0.3 |
| AACGCTTCTTGGGTTCTAACCTGTTGCCT (site ACCGCTTCTAG) | 0.215 |
| AACGCTTCTTGGGTTCTAACCTGTTGCCT (site AGCGCTTCTAG) | 0.0496 |
| AACGCTTCTTGGGTTCTAACCTGTTGCCT (site ATCGCTTCTAG) | 0.0246 |
| AACGTACCTTGGGTTCTAACCTGTTGCCA (site AACGTACCTTG) | 0.674 |
| AACGTACCTTGGGTTCTAACCTGTTGCCA (site GGTAATACTAT) | 0.0669 |
| AACTCTCCTTGGGTTCTAACCTGTTGCAT (site AACTATCCTAT) | 0.11 |
| AACTCTCCTTGGGTTCTAACCTGTTGCAT (site AACTCTCCTAT) | 0.588 |
| AACTCTCCTTGGGTTCTAACCTGTTGCAT (site AACTGTCCTAT) | 0.188 |
| AACTCTCCTTGGGTTCTAACCTGTTGCAT (site AACTTTCCTAT) | 0.0336 |
| AACTGATCTTGGGTTCTAACCTGTTGCCT (site AACTAATCTAG) | 0.0976 |
| AACTGATCTTGGGTTCTAACCTGTTGCCT (site AACTCATCTAG) | 0.0693 |
| AACTGATCTTGGGTTCTAACCTGTTGCCT (site AACTGATCTAG) | 0.397 |
| AACTGATCTTGGGTTCTAACCTGTTGCCT (site AACTTATCTAG) | 0.038 |

| Sequence | recombinant barcode read abundance (log10) |
| --- | --- |
| AACTGGGCTTGGGTTCTAACCTGTTGCCT (site AACTGGGCTAG) | 0.252 |
| AACTGGGCTTGGGTTCTAACCTGTTGCCT (site ACCTGGGCTAG) | 0.149 |
| AACTGGGCTTGGGTTCTAACCTGTTGCCT (site AGCTGGGCTAG) | 0.0923 |
| AACTGGGCTTGGGTTCTAACCTGTTGCCT (site ATCTGGGCTAG) | 0.141 |
| AACTGTCCTTGGGTTCTAACCTGTTGCAT (site AACTATCCTAT) | 0.106 |
| AACTGTCCTTGGGTTCTAACCTGTTGCAT (site AACTCTCCTAT) | 0.0428 |
| AACTGTCCTTGGGTTCTAACCTGTTGCAT (site AACTGTCCTAT) | 0.805 |
| AACTGTCCTTGGGTTCTAACCTGTTGCAT (site AACTTTCCTAT) | 0.106 |
| AACTTAACTTGGGTTCTAACCTGTTGCCT (site AACTAAACTAG) | 0.236 |
| AACTTAACTTGGGTTCTAACCTGTTGCCT (site AACTCAACTAG) | 0.0571 |
| AACTTAACTTGGGTTCTAACCTGTTGCCT (site AACTGAACTAG) | 0.09 |
| AACTTAACTTGGGTTCTAACCTGTTGCCT (site AACTTAACTAG) | 0.531 |
| AACTTCGCTTGGGTTCTAACCTGTTGCCT (site AACTTCACTAG) | 0.114 |
| AACTTCGCTTGGGTTCTAACCTGTTGCCT (site AACTTCCCTAG) | 0.00931 |
| AACTTCGCTTGGGTTCTAACCTGTTGCCT (site AACTTCGCTAG) | 0.423 |
| AACTTCGCTTGGGTTCTAACCTGTTGCCT (site AACTTCTCTAG) | 0.269 |
| AACTTGACTTGGGTTCTAACCTGTTGCCT (site AAATTGACTAG) | 0.248 |
| AACTTGACTTGGGTTCTAACCTGTTGCCT (site AACTTGACTAG) | 0.731 |
| AACTTGACTTGGGTTCTAACCTGTTGCCT (site AAGTTGACTAG) | 0.0706 |
| AACTTGACTTGGGTTCTAACCTGTTGCCT (site AATTTGACTAG) | 0.232 |
| AAGAACTCTTGGGTTCTAACCTGTTGCCG (site AAGAACTCTCG) | 2.1 |

| Sequence | recombinant barcode read abundance (log10) |
| --- | --- |
| AAGAACTCTTGGGTTCTAACCTGTTGCCG (site GTTTCAACTAC) | 0.0172 |
| AAGATACCTTGGGTTCTAACCTGTTGCTG (site AAGATACCTAA) | 0.283 |
| AAGATACCTTGGGTTCTAACCTGTTGCTG (site AAGATACCTCA) | 1.76 |
| AAGATATCTTGGGTTCTAACCTGTTGCCT (site AAGATATCTAG) | 1.86 |
| AAGATATCTTGGGTTCTAACCTGTTGCCT (site ACGATATCTAG) | 0.119 |
| AAGATATCTTGGGTTCTAACCTGTTGCCT (site AGGATATCTAG) | 0 |
| AAGATATCTTGGGTTCTAACCTGTTGCCT (site ATGATATCTAG) | 0.0647 |
| AAGCACCCTTGGGTTCTAACCTGTTGCAG (site AAGCACCCTCT) | 2.59 |
| AAGCACCCTTGGGTTCTAACCTGTTGCAG (site TAGCACTCTCT) | 0.311 |
| AAGCACCCTTGGGTTCTAACCTGTTGCTG (site AAGCACCCTCA) | 2.02 |
| AAGCACCCTTGGGTTCTAACCTGTTGCTG (site CCTGCGACTGT) | 0.276 |
| AAGCCTACTTGGGTTCTAACCTGTTGCTA (site AAGCCTACTTA) | 1.27 |
| AAGCCTACTTGGGTTCTAACCTGTTGCTA (site GAGCCTACTTA) | 0.0396 |
| AAGGCCTCTTGGGTTCTAACCTGTTGCAT (site AAGGCCTCTAT) | 2.93 |
| AAGGCCTCTTGGGTTCTAACCTGTTGCAT (site AAGGCCTCTTG) | 0.247 |
| AAGGCTACTTGGGTTCTAACCTGTTGCCT (site AAGGCTACTAG) | 0.304 |
| AAGGCTACTTGGGTTCTAACCTGTTGCCT (site AAGGCTTCTAG) | 0.144 |
| AAGGTACCTTGGGTTCTAACCTGTTGCGG (site AAGGTACCTCC) | 2.69 |
| AAGGTACCTTGGGTTCTAACCTGTTGCGG (site GTCACTACTAT) | 0.0994 |
